{"source": "PubChem BioAssay AID2060885", "about": "(Molecular Pharmacology Branch, DTP, NCI, 2025)", "system": "NCI-H23 complex spheroids with HUVEC/MSC, viability", "assay": "Anticancer human tumor NCI-H23 cell line growth inhibition [RAS];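 on all read-outs here: spheroids exposed to compound for 7 days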;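 on viability, T/C: 100% = DMSO vehicle control viability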", "conditions": "for IC50: curve of first compound; for viability, T/C: stronger effect = lower value", "method_in_brief": "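Agents were tested in combination matrices in half-log decrements from a top concentration at or near clinical Cmax (10 microM if undetermined). Targets were multi-cell spheroids of tumour lines plus HUVEC and MSC stromal cells.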", "data": [{"molecule": "C=CC(=O)N1CCN(c2nc(OCC3CCCN3C)nc3c(F)c(-c4nc(N)cc(C)c4C(F)(F)F)c(Cl)cc23)C(C)C1", "note": "(centres undefined) + CCn1c(-c2cc(N3CCN(C)CC3)cnc2C(C)OC)c2c3cc(ccc31)-c1csc(n1)CC(NC(=O)C1CC1C)C(=O)N1CCCC(N1)C(=O)OCC(C)(C)C2", "values": [{"measurement": "IC50", "setting": "second compound 0.000949 µM", "result": "< 3.16", "unit": "nM"}, {"measurement": "IC50", "setting": "second compound 0.003 µM", "result": "< 3.16", "unit": "nM"}, {"measurement": "IC50", "setting": "second compound 0.00949 µM", "result": "< 3.16", "unit": "nM"}, {"measurement": "IC50", "setting": "second compound 0.03 µM", "result": "< 3.16", "unit": "nM"}, {"measurement": "IC50", "setting": "second compound 0.0949 µM", "result": "< 3.16", "unit": "nM"}, {"measurement": "IC50", "setting": "second compound 0.3 µM", "result": "< 3.16", "unit": "nM"}, {"measurement": "viability, T/C", "setting": "second compound 0.000949 µM, first compound 0.00316 µM", "result": 32.5, "unit": "%"}, {"measurement": "viability, T/C", "setting": "second compound 0.000949 µM, first compound 0.01 µM", "result": 33, "unit": "%"}, {"measurement": "viability, T/C", "setting": "second compound 0.000949 µM, first compound 0.0316 µM", "result": 22.8, "unit": "%"}, {"measurement": "viability, T/C", "setting": "second compound 0.000949 µM, first compound 0.1 µM", "result": 30.2, "unit": "%"}, {"measurement": "viability, T/C", "setting": "second compound 0.000949 µM, first compound 0.316 µM", "result": 28.8, "unit": "%"}, {"measurement": "viability, T/C", "setting": "second compound 0.000949 µM, first compound 1 µM", "result": 23.3, "unit": "%"}, {"measurement": "viability, T/C", "setting": "second compound 0.003 µM, first compound 0.00316 µM", "result": 32.6, "unit": "%"}, {"measurement": "viability, T/C", "setting": "second compound 0.003 µM, first compound 0.01 µM", "result": 26.3, "unit": "%"}, {"measurement": "viability, T/C", "setting": "second compound 0.003 µM, first compound 0.0316 µM", "result": 23.6, "unit": "%"}, {"measurement": "viability, T/C", "setting": "second compound 0.003 µM, first compound 0.1 µM", "result": 29.8, "unit": "%"}, {"measurement": "viability, T/C", "setting": "second compound 0.003 µM, first compound 0.316 µM", "result": 29.5, "unit": "%"}, {"measurement": "viability, T/C", "setting": "second compound 0.003 µM, first compound 1 µM", "result": 27.4, "unit": "%"}, {"measurement": "viability, T/C", "setting": "second compound 0.00949 µM, first compound 0.00316 µM", "result": 31, "unit": "%"}, {"measurement": "viability, T/C", "setting": "second compound 0.00949 µM, first compound 0.01 µM", "result": 25, "unit": "%"}, {"measurement": "viability, T/C", "setting": "second compound 0.00949 µM, first compound 0.0316 µM", "result": 28.1, "unit": "%"}, {"measurement": "viability, T/C", "setting": "second compound 0.00949 µM, first compound 0.1 µM", "result": 28.5, "unit": "%"}, {"measurement": "viability, T/C", "setting": "second compound 0.00949 µM, first compound 0.316 µM", "result": 25.9, "unit": "%"}, {"measurement": "viability, T/C", "setting": "second compound 0.00949 µM, first compound 1 µM", "result": 26.9, "unit": "%"}, {"measurement": "viability, T/C", "setting": "second compound 0.03 µM, first compound 0.00316 µM", "result": 26.4, "unit": "%"}, {"measurement": "viability, T/C", "setting": "second compound 0.03 µM, first compound 0.01 µM", "result": 23, "unit": "%"}, {"measurement": "viability, T/C", "setting": "second compound 0.03 µM, first compound 0.0316 µM", "result": 25, "unit": "%"}, {"measurement": "viability, T/C", "setting": "second compound 0.03 µM, first compound 0.1 µM", "result": 21, "unit": "%"}, {"measurement": "viability, T/C", "setting": "second compound 0.03 µM, first compound 0.316 µM", "result": 16.9, "unit": "%"}, {"measurement": "viability, T/C", "setting": "second compound 0.03 µM, first compound 1 µM", "result": 21.8, "unit": "%"}, {"measurement": "viability, T/C", "setting": "second compound 0.0949 µM, first compound 0.00316 µM", "result": 18.4, "unit": "%"}, {"measurement": "viability, T/C", "setting": "second compound 0.0949 µM, first compound 0.01 µM", "result": 16.8, "unit": "%"}, {"measurement": "viability, T/C", "setting": "second compound 0.0949 µM, first compound 0.0316 µM", "result": 16, "unit": "%"}, {"measurement": "viability, T/C", "setting": "second compound 0.0949 µM, first compound 0.1 µM", "result": 14.4, "unit": "%"}, {"measurement": "viability, T/C", "setting": "second compound 0.0949 µM, first compound 0.316 µM", "result": 12.2, "unit": "%"}, {"measurement": "viability, T/C", "setting": "second compound 0.0949 µM, first compound 1 µM", "result": 13.8, "unit": "%"}, {"measurement": "viability, T/C", "setting": "second compound 0.3 µM, first compound 0.00316 µM", "result": 17.2, "unit": "%"}, {"measurement": "viability, T/C", "setting": "second compound 0.3 µM, first compound 0.01 µM", "result": 13.7, "unit": "%"}, {"measurement": "viability, T/C", "setting": "second compound 0.3 µM, first compound 0.0316 µM", "result": 14, "unit": "%"}, {"measurement": "viability, T/C", "setting": "second compound 0.3 µM, first compound 0.1 µM", "result": 11.8, "unit": "%"}, {"measurement": "viability, T/C", "setting": "second compound 0.3 µM, first compound 0.316 µM", "result": 12.9, "unit": "%"}, {"measurement": "viability, T/C", "setting": "second compound 0.3 µM, first compound 1 µM", "result": 11.1, "unit": "%"}]}, {"molecule": "CC1(C)CCC(Nc2ncc(C(F)(F)F)c(-c3c[nH]c4c(P(C)(C)=O)c(C#N)ccc34)n2)CN1", "note": "(centres undefined) + CCn1c(-c2cc(N3CCN(C)CC3)cnc2C(C)OC)c2c3cc(ccc31)-c1csc(n1)CC(NC(=O)C1CC1C)C(=O)N1CCCC(N1)C(=O)OCC(C)(C)C2", "values": [{"measurement": "IC50", "setting": "second compound 0.000949 µM", "result": "< 0.949", "unit": "nM"}, {"measurement": "IC50", "setting": "second compound 0.003 µM", "result": "< 0.949", "unit": "nM"}, {"measurement": "IC50", "setting": "second compound 0.00949 µM", "result": "< 0.949", "unit": "nM"}, {"measurement": "IC50", "setting": "second compound 0.03 µM", "result": "< 0.949", "unit": "nM"}, {"measurement": "IC50", "setting": "second compound 0.0949 µM", "result": "< 0.949", "unit": "nM"}, {"measurement": "IC50", "setting": "second compound 0.3 µM", "result": "< 0.949", "unit": "nM"}, {"measurement": "viability, T/C", "setting": "second compound 0.000949 µM, first compound 0.000949 µM", "result": 33.9, "unit": "%"}, {"measurement": "viability, T/C", "setting": "second compound 0.000949 µM, first compound 0.003 µM", "result": 29.4, "unit": "%"}, {"measurement": "viability, T/C", "setting": "second compound 0.000949 µM, first compound 0.00949 µM", "result": 21.1, "unit": "%"}, {"measurement": "viability, T/C", "setting": "second compound 0.000949 µM, first compound 0.03 µM", "result": 26.6, "unit": "%"}, {"measurement": "viability, T/C", "setting": "second compound 0.000949 µM, first compound 0.0949 µM", "result": 21, "unit": "%"}, {"measurement": "viability, T/C", "setting": "second compound 0.000949 µM, first compound 0.3 µM", "result": 14.5, "unit": "%"}, {"measurement": "viability, T/C", "setting": "second compound 0.003 µM, first compound 0.000949 µM", "result": 26.6, "unit": "%"}, {"measurement": "viability, T/C", "setting": "second compound 0.003 µM, first compound 0.003 µM", "result": 21.2, "unit": "%"}, {"measurement": "viability, T/C", "setting": "second compound 0.003 µM, first compound 0.00949 µM", "result": 16.8, "unit": "%"}, {"measurement": "viability, T/C", "setting": "second compound 0.003 µM, first compound 0.03 µM", "result": 18.4, "unit": "%"}, {"measurement": "viability, T/C", "setting": "second compound 0.003 µM, first compound 0.0949 µM", "result": 16.7, "unit": "%"}, {"measurement": "viability, T/C", "setting": "second compound 0.003 µM, first compound 0.3 µM", "result": 12.2, "unit": "%"}, {"measurement": "viability, T/C", "setting": "second compound 0.00949 µM, first compound 0.000949 µM", "result": 21.4, "unit": "%"}, {"measurement": "viability, T/C", "setting": "second compound 0.00949 µM, first compound 0.003 µM", "result": 16.8, "unit": "%"}, {"measurement": "viability, T/C", "setting": "second compound 0.00949 µM, first compound 0.00949 µM", "result": 16.1, "unit": "%"}, {"measurement": "viability, T/C", "setting": "second compound 0.00949 µM, first compound 0.03 µM", "result": 15.9, "unit": "%"}, {"measurement": "viability, T/C", "setting": "second compound 0.00949 µM, first compound 0.0949 µM", "result": 12.8, "unit": "%"}, {"measurement": "viability, T/C", "setting": "second compound 0.00949 µM, first compound 0.3 µM", "result": 11.8, "unit": "%"}, {"measurement": "viability, T/C", "setting": "second compound 0.03 µM, first compound 0.000949 µM", "result": 17.6, "unit": "%"}, {"measurement": "viability, T/C", "setting": "second compound 0.03 µM, first compound 0.003 µM", "result": 14.4, "unit": "%"}, {"measurement": "viability, T/C", "setting": "second compound 0.03 µM, first compound 0.00949 µM", "result": 13.4, "unit": "%"}, {"measurement": "viability, T/C", "setting": "second compound 0.03 µM, first compound 0.03 µM", "result": 12.8, "unit": "%"}, {"measurement": "viability, T/C", "setting": "second compound 0.03 µM, first compound 0.0949 µM", "result": 10.5, "unit": "%"}, {"measurement": "viability, T/C", "setting": "second compound 0.03 µM, first compound 0.3 µM", "result": 12.6, "unit": "%"}, {"measurement": "viability, T/C", "setting": "second compound 0.0949 µM, first compound 0.000949 µM", "result": 15, "unit": "%"}, {"measurement": "viability, T/C", "setting": "second compound 0.0949 µM, first compound 0.003 µM", "result": 13.5, "unit": "%"}, {"measurement": "viability, T/C", "setting": "second compound 0.0949 µM, first compound 0.00949 µM", "result": 10.5, "unit": "%"}, {"measurement": "viability, T/C", "setting": "second compound 0.0949 µM, first compound 0.03 µM", "result": 10.9, "unit": "%"}, {"measurement": "viability, T/C", "setting": "second compound 0.0949 µM, first compound 0.0949 µM", "result": 9.11, "unit": "%"}, {"measurement": "viability, T/C", "setting": "second compound 0.0949 µM, first compound 0.3 µM", "result": 10.1, "unit": "%"}, {"measurement": "viability, T/C", "setting": "second compound 0.3 µM, first compound 0.000949 µM", "result": 13.1, "unit": "%"}, {"measurement": "viability, T/C", "setting": "second compound 0.3 µM, first compound 0.003 µM", "result": 10.8, "unit": "%"}, {"measurement": "viability, T/C", "setting": "second compound 0.3 µM, first compound 0.00949 µM", "result": 10.7, "unit": "%"}, {"measurement": "viability, T/C", "setting": "second compound 0.3 µM, first compound 0.03 µM", "result": 9.9, "unit": "%"}, {"measurement": "viability, T/C", "setting": "second compound 0.3 µM, first compound 0.0949 µM", "result": 9.8, "unit": "%"}, {"measurement": "viability, T/C", "setting": "second compound 0.3 µM, first compound 0.3 µM", "result": 9.04, "unit": "%"}]}]}
